Reference: ChEMBL document CHEMBL3632483, “Synthesis and pharmacological evaluation of piperidine (piperazine)-substituted benzoxazole derivatives as multi-target antipsychotics” (Bioorg Med Chem Lett, 2015)
The source made the active and inactive calls. The calls are words filed in the database; no cut-off is given here.

Legend:
Mus musculus [1] = experiment: Antipsychotic activity in po dosed Chinese Kun Ming mouse assessed as inhibition of apomorphine-induced climbing administered 30 mins before apomorphine challenge measured up to 30 mins; type: functional
Histamine H1 receptor = Histamine H1 receptor (Cavia porcellus, UniProt P31389); experiment: Displacement of [3H]mepyramine from histamine H1 receptor in guinea pig cerebellum homogenates after 60 mins by liquid scintillation counting
Mus musculus [2] = experiment: Antipsychotic activity in Chinese Kun Ming mouse assessed as inhibition of apomorphine-induced climbing behaviour at 1 mg/kg, po administered 30 mins before apomorphine challenge measured up to 30 mins; type: functional, organism-based
[3] = molecular target: T1, Adrenergic receptor alpha-2 (Rattus norvegicus, UniProt P22086+P19328+P22909); experiment: Displacement of [3H]-rauwolscine from adrenergic alpha2 receptor in rat cerebral cortex homogenates after 60 mins by liquid scintillation counting; type: tissue-based
T1 sequence (P22086 whole entry): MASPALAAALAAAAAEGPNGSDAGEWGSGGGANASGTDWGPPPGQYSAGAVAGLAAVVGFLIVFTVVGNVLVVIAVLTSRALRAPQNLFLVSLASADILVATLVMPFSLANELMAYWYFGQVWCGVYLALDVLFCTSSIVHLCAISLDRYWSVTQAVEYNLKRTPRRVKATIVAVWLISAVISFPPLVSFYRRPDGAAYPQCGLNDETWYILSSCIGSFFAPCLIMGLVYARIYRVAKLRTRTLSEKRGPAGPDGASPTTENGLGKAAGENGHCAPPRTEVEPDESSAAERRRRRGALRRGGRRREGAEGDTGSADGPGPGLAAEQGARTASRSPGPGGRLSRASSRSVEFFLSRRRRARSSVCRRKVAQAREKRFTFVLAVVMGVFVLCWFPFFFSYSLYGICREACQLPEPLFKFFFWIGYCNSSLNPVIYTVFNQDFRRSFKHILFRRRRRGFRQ
T1 sequence (P19328 whole entry): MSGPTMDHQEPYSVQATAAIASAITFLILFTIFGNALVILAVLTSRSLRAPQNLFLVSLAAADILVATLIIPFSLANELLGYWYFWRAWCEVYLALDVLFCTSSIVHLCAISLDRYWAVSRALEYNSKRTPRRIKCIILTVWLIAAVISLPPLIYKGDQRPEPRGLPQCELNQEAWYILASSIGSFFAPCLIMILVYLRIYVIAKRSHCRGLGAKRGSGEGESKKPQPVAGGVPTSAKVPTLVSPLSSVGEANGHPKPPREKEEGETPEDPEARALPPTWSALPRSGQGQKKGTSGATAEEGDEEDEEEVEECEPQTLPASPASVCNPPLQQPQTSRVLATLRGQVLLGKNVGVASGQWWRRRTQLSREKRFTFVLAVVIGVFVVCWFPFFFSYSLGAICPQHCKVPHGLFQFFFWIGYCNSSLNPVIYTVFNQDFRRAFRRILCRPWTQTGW
T1 sequence (P22909 whole entry): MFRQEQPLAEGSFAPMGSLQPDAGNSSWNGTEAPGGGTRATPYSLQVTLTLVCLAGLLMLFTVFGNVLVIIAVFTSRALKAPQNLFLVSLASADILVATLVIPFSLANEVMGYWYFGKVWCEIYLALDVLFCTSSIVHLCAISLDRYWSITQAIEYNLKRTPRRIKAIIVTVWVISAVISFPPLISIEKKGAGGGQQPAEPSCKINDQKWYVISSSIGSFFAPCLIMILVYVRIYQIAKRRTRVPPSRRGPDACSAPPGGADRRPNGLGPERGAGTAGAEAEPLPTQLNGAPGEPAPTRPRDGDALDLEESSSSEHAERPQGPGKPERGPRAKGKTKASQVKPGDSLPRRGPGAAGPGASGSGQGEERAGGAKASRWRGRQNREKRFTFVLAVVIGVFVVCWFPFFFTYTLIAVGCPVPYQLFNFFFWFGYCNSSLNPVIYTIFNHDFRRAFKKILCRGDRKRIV

Mus musculus [4] = experiment: Neurotoxicity in Chinese Kun Ming mouse assessed as locomotor activity by measuring total distance traveled at 3 mg/kg, po administered 1 hr before test measured for 10 mins (reference value: 13263.8 +/- 8034.2 millimeter); type: toxicity, organism-based; conditions: in vivo
Mus musculus [5] = experiment: Antipsychotic activity in Chinese Kun Ming mouse assessed as inhibition of apomorphine-induced reaching behaviour at 1 mg/kg, po administered 30 mins before apomorphine challenge measured up to 30 mins; type: functional, organism-based
Mus musculus [6] = experiment: Antipsychotic activity in po dosed Chinese Kun Ming mouse assessed as inhibition of DOI-induced head twitch administered 60 mins before DOI challenge measured up to 15 mins; type: functional
Mus musculus [7] = experiment: Toxicity in po dosed Chinese Kun Ming mouse assessed as induction of catalepsy by measuring immobility score of 30 seconds administered 30 mins before first assessment; type: organism-based; conditions: in vivo, 0.5 h
Mus musculus [8] = experiment: Neurotoxicity in Chinese Kun Ming mouse assessed as locomotor activity by measuring total distance traveled at 1 mg/kg, po administered 1 hr before test measured for 10 mins (reference value: 13263.8 +/- 8034.2 millimeter); type: toxicity, organism-based; conditions: in vivo
Mus musculus [9] = experiment: Neurotoxicity in Chinese Kun Ming mouse assessed as locomotor activity by measuring total distance traveled at 10 mg/kg, po administered 1 hr before test measured for 10 mins (reference value: 13263.8 +/- 8034.2 millimeter); type: toxicity, organism-based; conditions: in vivo

Chain of Histamine H1 receptor (P31389 whole entry): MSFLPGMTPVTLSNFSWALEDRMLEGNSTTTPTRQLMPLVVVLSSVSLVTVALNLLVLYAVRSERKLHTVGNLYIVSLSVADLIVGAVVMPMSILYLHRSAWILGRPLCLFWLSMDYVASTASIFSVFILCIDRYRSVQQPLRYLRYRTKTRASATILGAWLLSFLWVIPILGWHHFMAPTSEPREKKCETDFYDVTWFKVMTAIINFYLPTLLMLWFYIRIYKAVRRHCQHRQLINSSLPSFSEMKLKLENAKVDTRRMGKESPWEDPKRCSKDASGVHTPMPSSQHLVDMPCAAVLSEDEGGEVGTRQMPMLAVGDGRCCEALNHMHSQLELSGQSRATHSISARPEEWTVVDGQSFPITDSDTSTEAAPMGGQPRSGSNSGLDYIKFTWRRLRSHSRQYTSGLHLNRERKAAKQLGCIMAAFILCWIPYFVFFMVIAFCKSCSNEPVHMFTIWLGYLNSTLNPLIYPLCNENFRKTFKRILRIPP

`Fc1ccc2c(C3CCN(CCCOc4ccc(Cc5nc6ccccc6o5)cc4)CC3)noc2c1` was tested, and the ED50 (Mus musculus [1]) was 0.86 mg/kg, the Ki (Histamine H1 receptor) was 3.15 µM and the inhibition (Mus musculus [2]) was “Active”. The Ki [3] was 0.0163 µM, the Activity (Mus musculus [4]) was 10447.5 mm and the inhibition (Mus musculus [5]) was “Active”. For the same compound, the ED50 (Mus musculus [6]) was 0.71 mg/kg, the inhibition (Mus musculus [6]) was “Dose-dependent effect” and the ED50 (Mus musculus [7]) was 70.5 mg/kg. It also gave an Activity (Mus musculus [8]) of 13046.7 mm and an Activity (Mus musculus [9]) of 9492.4 mm.
With `Fc1ccc2c(C3CCN(CCCOc4ccc(-c5nc6ccccc6o5)cc4)CC3)noc2c1` the Ki [3] was 0.153 µM.
